Conditions: 323.15 K, Liquid, Vibrating tube method

CCCCCCCCCC [decane]
Conditions | mass density [kg/m3]
19981 kPa | 723.9
20414 kPa | 724.1
20537 kPa | 724.2
20652 kPa | 724.2
20695 kPa | 724.1
20721 kPa | 724.3
20740 kPa | 724.4
20766 kPa | 724.4
20799 kPa | 724.3
20826 kPa | 724.5
20842 kPa | 724.5
20862 kPa | 724.5
20893 kPa | 724.5
20916 kPa | 724.4
20949 kPa | 724.5
20970 kPa | 724.6
20990 kPa | 724.5
21020 kPa | 724.4
21044 kPa | 724.5
21064 kPa | 724.7
21088 kPa | 724.5
21254 kPa | 724.7
21289 kPa | 724.7
21309 kPa | 724.8
21334 kPa | 724.7
21558 kPa | 724.9
21597 kPa | 725
21615 kPa | 724.9
21681 kPa | 725
21707 kPa | 725.1
21732 kPa | 725.1
21754 kPa | 725.1
21790 kPa | 725.1
21819 kPa | 725.1
21845 kPa | 725.1
21867 kPa | 725.2
21896 kPa | 725.2
21926 kPa | 725.2
21955 kPa | 725.2
21989 kPa | 725.3
22012 kPa | 725.3
22035 kPa | 725.2
22072 kPa | 725.4
22094 kPa | 725.2
22131 kPa | 725.4
22154 kPa | 725.4
22183 kPa | 725.4
22207 kPa | 725.4
22236 kPa | 725.3
22271 kPa | 725.5
22302 kPa | 725.5
22328 kPa | 725.5
22359 kPa | 725.5
22383 kPa | 725.5
22410 kPa | 725.6
22448 kPa | 725.6
22471 kPa | 725.6
22498 kPa | 725.7
22533 kPa | 725.6
22563 kPa | 725.7
22583 kPa | 725.8
22622 kPa | 725.6
22654 kPa | 725.8
22682 kPa | 725.7
23638 kPa | 726.6
23679 kPa | 726.7
24027 kPa | 726.8
24056 kPa | 726.8

Reference: the NIST ThermoML archive (doi:10.1021/je800110r)
